According to US20100178317A1, “Lens Care Solutions with Hyaluronic Acid” (priority 2009, published 2010):

Assay: Precipitate formation of polyquaternium-1 in hyaluronic acid compositions
Type: physicochemical
Conditions: polyquaternium-1 concentration beyond 3 ppm
From the text: One of the more common quaternary ammonium compounds is α-[4-tris(2-hydroxyethyl)-ammonium chloride-2-butenyl]poly[1-dimethyl ammonium chloride-2-butenyl]-ω-tris(2-hydroxyethyl) ammonium chloride, also referred to in the art as polyquaternium-1. Quaternary ammonium compounds are generally referred to in the art as “polyquatemium” disinfectants, and are identified by a particular number following the designation such as polyquaternium-1, polyquaternium-10 or polyquaternium-42. Polyquaternium-1 is present in the ophthalmic compositions from 0.5 ppm to 3 ppm. […] The precipitate is believed to be the complexation product of hyaluronic acid and polyquaternium-1.

compatibility with hyaluronic acid in the compositions: formation of a precipitate
Substance: α-[4-tris(2-hydroxyethyl)-ammonium chloride-2-butenyl]poly[1-dimethyl ammonium chloride-2-butenyl]-ω-tris(2-hydroxyethyl) ammonium chloride [polyquaternium-1]
